Results as given in ChEMBL document CHEMBL1275533, “In vitro antibacterial activity of vertilmicin and its susceptibility to modifications by the recombinant AAC6'-APH2'' enzyme” (2008).
≈ marks a conversion by molar mass, not a printed value. Calls of active or inactive are those of the source. No cut-off for these calls is given here.

Legend:
[1] = test system: Escherichia coli BL21(DE3); assay: Ratio of Vmax to Km for AAC(6')-APH(2'') in Escherichia coli BL21(DE3) assessed as production of free pyridine-4-thiolate relative to netilmicin
Staphylococcus aureus [2] = assay: Bactericidal activity against Staphylococcus aureus ATCC 29213 at >=1 MIC up to 8 hrs by time-kill study; assay type: functional, organism-based
Staphylococcus aureus [3] = assay: Antibacterial activity against Staphylococcus aureus ATCC 29213 after 18 hrs by agar dilution method; assay type: functional; details: ATCC 29213, 18 h
Citrobacter koseri [4] = assay: Antibacterial activity against gentamicin-resistant Citrobacter diversus clinical isolate assessed as susceptible isolates after 18 hrs by agar dilution method; assay type: functional
Citrobacter koseri [5] = assay: Antibacterial activity against non-gentamicin-resistant Citrobacter diversus clinical isolate assessed as susceptible isolates after 18 hrs by agar dilution method; assay type: functional
Haemophilus influenzae = assay: Antibacterial activity against non-gentamicin-resistant Haemophilus influenzae clinical isolate assessed as susceptible isolates after 18 hrs by agar dilution method; assay type: functional, organism-based
Escherichia coli [6] = assay: microbe, parasite or virus in culture; details: ATCC 25922, 18 h
Description: Antibacterial activity against Escherichia coli ATCC 25922 after 18 hrs by agar dilution method

[7] = test system: Staphylococcus epidermidis; assay: Bactericidal activity against Staphylococcus epidermidis isolate 01-55 at >=1 MIC up to 8 hrs by time-kill study; assay type: functional, organism-based
Proteus mirabilis = assay: Antibacterial activity against non-gentamicin-resistant Proteus mirabilis clinical isolate after 18 hrs by agar dilution method; assay type: functional
Klebsiella pneumoniae [8] = assay: Antibacterial activity against Klebsiella pneumoniae isolate 01-21 at 1 MIC up to 8 hrs by time-kill study; assay type: functional, organism-based
Klebsiella pneumoniae [9] = assay: Antibacterial activity against Klebsiella pneumoniae isolate 01-21 after 18 hrs by agar dilution method; assay type: functional; details: isolate 01-21, 18 h
Pseudomonas aeruginosa = assay: Antibacterial activity against non-gentamicin-resistant Pseudomonas aeruginosa clinical isolate assessed as susceptible isolates after 18 hrs by agar dilution method; assay type: functional
Pseudomonas sp. [10] = assay: Antibacterial activity against non-gentamicin-resistant Pseudomonas spp. clinical isolate assessed as susceptible isolates after 18 hrs by agar dilution method; assay type: functional
[11] = test system: Escherichia coli BL21(DE3); assay: Phosphorylation activity of AAC(6')-APH(2'') in Escherichia coli BL21(DE3) assessed as oxidation of NADH by pyruvate kinase relative to verdamicin
[12] = test system: Acinetobacter calcoaceticus; assay: Antibacterial activity against non-gentamicin-resistant Acinetobacter calcoaceticus clinical isolate assessed as susceptible isolates after 18 hrs by agar dilution method; assay type: functional
[13] = test system: Escherichia coli BL21(DE3); assay: Ratio of Vmax to Km for AAC(6')-APH(2'') in Escherichia coli BL21(DE3) assessed as oxidation of NADH by pyruvate kinase relative to netilmicin
Escherichia coli [14] = assay: Antibacterial activity against non-gentamicin-resistant Escherichia coli clinical isolate after 18 hrs by agar dilution method; assay type: functional
Citrobacter koseri [15] = assay: Antibacterial activity against gentamicin-resistant Citrobacter diversus clinical isolate after 18 hrs by agar dilution method; assay type: functional
Escherichia coli [16] = assay: Antibacterial activity against gentamicin-resistant Escherichia coli clinical isolate after 18 hrs by agar dilution method; assay type: functional
Citrobacter freundii = assay: Antibacterial activity against gentamicin-resistant Citrobacter freundii clinical isolate assessed as susceptible isolates after 18 hrs by agar dilution method; assay type: functional
[17] = test system: Escherichia coli BL21(DE3); assay: Acetylation activity of AAC(6')-APH(2'') in Escherichia coli BL21(DE3) assessed as production of free pyridine-4-thiolate relative to netilmicin
[18] = test system: Acinetobacter calcoaceticus; assay: Antibacterial activity against gentamicin-resistant Acinetobacter calcoaceticus clinical isolate assessed as susceptible isolates after 18 hrs by agar dilution method; assay type: functional
Escherichia coli [19] = assay: Antibacterial activity against non-gentamicin-resistant Escherichia coli clinical isolate assessed as susceptible isolates after 18 hrs by agar dilution method; assay type: functional
Klebsiella aerogenes [20] = assay: Antibacterial activity against gentamicin-resistant Enterobacter aerogenes clinical isolate assessed as susceptible isolates after 18 hrs by agar dilution method; assay type: functional
Enterococcus faecalis = assay: Antibacterial activity against gentamicin-resistant Enterococcus faecalis clinical isolate after 18 hrs by agar dilution method; assay type: functional
Pseudomonas sp. [21] = assay: Antibacterial activity against gentamicin-resistant Pseudomonas spp. clinical isolate after 18 hrs by agar dilution method; assay type: functional
Klebsiella aerogenes [22] = assay: Antibacterial activity against non-gentamicin-resistant Enterobacter aerogenes clinical isolate after 18 hrs by agar dilution method; assay type: functional
[23] = test system: Staphylococcus epidermidis; assay: Antibacterial activity against Staphylococcus epidermidis isolate 01-55 after 18 hrs by agar dilution method; assay type: functional; details: isolate 01-55, 18 h
Providencia rettgeri [24] = assay: Antibacterial activity against gentamicin-resistant Proteus rettgeri clinical isolate after 18 hrs by agar dilution method; assay type: functional
Serratia marcescens = assay: Antibacterial activity against non-gentamicin-resistant Serratia marcescens clinical isolate after 18 hrs by agar dilution method; assay type: functional
[25] = test system: Acinetobacter calcoaceticus; assay: Antibacterial activity against gentamicin-resistant Acinetobacter calcoaceticus clinical isolate after 18 hrs by agar dilution method; assay type: functional
Escherichia coli [26] = assay: Antibacterial activity against Escherichia coli ATCC 25922 at MIC up to 8 hrs by time-kill study; assay type: functional, organism-based
[27] = test system: Staphylococcus epidermidis; assay: Antibacterial activity against non-gentamicin-resistant Staphylococcus epidermidis clinical isolate assessed as susceptible isolates after 18 hrs by agar dilution method; assay type: functional
Providencia rettgeri [28] = assay: Antibacterial activity against gentamicin-resistant Proteus rettgeri clinical isolate assessed as susceptible isolates after 18 hrs by agar dilution method; assay type: functional

In the case of `CCN[C@@H]1C[C@H](N)[C@@H](O[C@@H]2OC(C(C)N)=CC[C@@H]2N)[C@H](O)[C@H]1O[C@H]1OC[C@](C)(O)[C@H](NC)[C@H]1O` (stereo not given in full) [VERTILMICIN], the Vmax/Km [1] is reported as 4.2%, the Activity (Staphylococcus aureus [2]) is reported as “Dose-dependent effect” and the MIC (Staphylococcus aureus [3]) is reported as 0.125 µg/mL (≈ 0.255 µM). The Activity (Citrobacter koseri [4]) was 7.1%, the Activity (Citrobacter koseri [5]) was 100% and the Activity (Haemophilus influenzae) was “inactive”. For the same molecule, the MIC (Escherichia coli [6]) was 0.25 µg/mL (≈ 0.511 µM), the Activity [7] was “Dose-dependent effect” and the MIC50 (Proteus mirabilis) was 1 µg/mL (≈ 2.04 µM). The MIC90 (Proteus mirabilis) was 2 µg/mL (≈ 4.08 µM), the Activity (Klebsiella pneumoniae [8]) was “Dose-dependent effect” and the MIC (Klebsiella pneumoniae [9]) was 0.25 µg/mL (≈ 0.511 µM). The Activity (Pseudomonas aeruginosa) was 78.7%, the Activity (Pseudomonas sp. [10]) was 72.7% and the Vmax [11] was 49.8%. It also gave an Activity [12] of 93.8%, a Vmax/Km [13] of 19.9% and an MIC50 (Escherichia coli [14]) of 0.5 µg/mL (≈ 1.02 µM). For the same molecule, the MIC90 (Escherichia coli [14]) was 0.5 µg/mL (≈ 1.02 µM), the MIC50 (Citrobacter koseri [15]) was 32 µg/mL (≈ 65.4 µM) and the MIC90 (Citrobacter koseri [15]) was > 128 µg/mL. It also gave an MIC50 (Escherichia coli [16]) of 8 µg/mL (≈ 16.3 µM), an MIC90 (Escherichia coli [16]) of 64 µg/mL (≈ 131 µM) and an Activity (Citrobacter freundii) of 52.6%. It also gave a Vmax [17] of 6.5%, an Activity [18] of 24% and an Activity (Escherichia coli [19]) of 100%. For the same molecule, the Activity (Klebsiella aerogenes [20]) was 30%, the MIC50 (Enterococcus faecalis) was 4 µg/mL (≈ 8.17 µM) and the MIC90 (Enterococcus faecalis) was > 128 µg/mL. The MIC50 (Pseudomonas sp. [21]) was 128 µg/mL (≈ 261 µM), the MIC90 (Pseudomonas sp. [21]) was > 128 µg/mL and the MIC50 (Klebsiella aerogenes [22]) was 0.5 µg/mL (≈ 1.02 µM). For the same molecule, the MIC90 (Klebsiella aerogenes [22]) was 2 µg/mL (≈ 4.08 µM), the MIC [23] was 0.25 µg/mL (≈ 0.511 µM) and the MIC50 (Providencia rettgeri [24]) was 8 µg/mL (≈ 16.3 µM). The MIC90 (Providencia rettgeri [24]) was 64 µg/mL (≈ 131 µM), the MIC (Serratia marcescens) was 0.25 µg/mL (≈ 0.511 µM) and the MIC50 (Serratia marcescens) was 0.25 µg/mL (≈ 0.511 µM). The MIC90 (Serratia marcescens) was 1 µg/mL (≈ 2.04 µM), the MIC50 [25] was 128 µg/mL (≈ 261 µM) and the MIC90 [25] was > 128 µg/mL. The Activity (Escherichia coli [26]) was “Dose-dependent effect”, the Activity [27] was 100% and the Activity (Providencia rettgeri [28]) was 53.3%.
